Laboratory results reported in patent US20220143003A1, “COMPOSITIONS AND METHODS TO TREAT NON-ALCOHOLIC FATTY LIVER DISEASES (NAFLD)” (Coherus Biosciences, Inc., priority 2018, published 2022).

Tests used:
Format in all cases: in vivo, male C57BL/6JRj mice
DIO-NASH mice [1] = test: Absolute and relative body weight, measured daily and at termination; settings: for Absolute body weight at termination / Terminal relative body weight, percentage of starting body weight: group mean; for Terminal relative body weight, percentage of starting body weight: day 83/84/85, baseline day 0=100%
Procedure: The Diet-induced-obesity (DIO)-NASH mouse model was induced by feeding male C57BL/6JRj mice a high fat diet containing 40% fat with trans-fat, 20% fructose and 2% cholesterol (AMLN diet or D09100301, Research Diets Inc., USA). Induction of NASH was started at 5 weeks of age and mice were fed the AMLN diet for 36 weeks prior to study start resulting in NASH, which was confirmed by pre-biopsy prior to study start as described below.
Absolute body weight, BW, (g) was measured daily throughout the study period. Values expressed as mean of n=11-14+SEM (see FIG. 1).
Absolute body weight at termination (measured day 83/84/85). Values expressed as mean of n=12-14+SEM.
Relative BW, recorded as percentage of starting body weight (baseline day 0=100%), was measured daily throughout the study period. Values expressed as mean of n=11-14+SEM (see FIG. 2).
Terminal relative body weight (measured day 83/84/85), recorded as percentage of starting body weight (baseline day 0=100%). Values expressed as mean of n=12-14+SEM.

DIO-NASH mice [2] = test: 4 h fasted blood glucose; settings: group mean
DIO-NASH mice [3] = test: Intraperitoneal insulin tolerance test (IPITT), week 10; set-up: Area under the curve 0-180 min IPITT (blood glucose): unit not given here; settings: for Area under the curve 0-180 min IPITT (blood glucose): week 10, 6 h fasted, i.p. insulin 0.5 U/kg, group mean
Procedure: Mice were fasted 6 hours prior to intraperitoneal insulin administration (0.5 Unit/kg, rapid acting insulin NovoRapid). At the various time points after insulin administration, blood samples were collected into heparinized glass capillary tubes and immediately suspended in glucose/lactate system solution buffer (EKF-diagnostics, Germany). Blood glucose (BG) was measured using a BIOSEN c-Line glucose meter (EKF-diagnostics, Germany) according to the manufacturer's instructions. After the last blood sample, the animals were returned to the normal feeding schedule. The order of the animals was randomized before the procedure and mice were dosed with compounds just after the −60 minutes blood sample.
Intraperitoneal insulin tolerance test (IPITT) in week 10. Left: Temporal course of blood glucose levels during 6 h fasted IPITT. Intraperitoneal insulin bolus (0.5 U/kg) at t=0 min.
Area under the curve calculated from the temporal course from 0-180 min PITT Values expressed as mean of n=12-14+SEM.

DIO-NASH mice [4] = test: Plasma total cholesterol (TC) at termination; settings: for Plasma total cholesterol (TC) at termination: group mean
Procedure: (§1) For plasma biochemistry, tail blood was drawn directly through the capillary of a Microvette/Vacuette of the right dimension and anticoagulant and mixed by inversion 5 times. Blood was placed at 4° C. until centrifugation at 3000×g for 10 minutes at 4° C. The plasma supernatants were transferred to new tubes and immediately frozen on dry ice and stored at −80° C. until analysis.
(§2) Mouse insulin was measured in single determinations using the MSD platform (Meso Scale Diagnostics).
Plasma total cholesterol (TC) at termination (mmol/L). Values expressed as mean of n=12-14+SEM.

DIO-NASH mice [5] = test: Plasma urea at termination; settings: for Plasma urea at termination: group mean
Procedure: as §1, §2
Plasma urea at termination (mmol/L). Values expressed as mean of n=12-14+SEM.

DIO-NASH mice [6] = test: Liver α-SMA IHC quantified by morphometry; settings: for Relative terminal liver α-SMA by morphometry / Total terminal α-SMA (% fractional area multiplied with liver weight): group mean
Procedure: Protein markers of fibrosis (Col1a1), fibrogenesis (α-SMA) and inflammation (Gal-3) were assessed by immunohistochemistry. α-SMA and collagen type I increase in regulation of quiescent hepatic stellate cell activation into myofibroblast-like cells where activated hepatic stellate cells are the main collagen producing cells in the liver (Carpino et al 2005, Hou and Syn 2018) whereas Gal-3 is involved in mediating inflammatory response and considered as a macrophage activation marker (Sciacchitano et al, 2018). For morphometric quantification of liver Col1a1 (using antibody from Southern Biotech, Cat. #1310-01), alpha-smooth muscle actin (α-SMA; using antibody from Abcam, Cat. #Ab124964) and Galectin-3 (using antibody from Biolegend, Cat. #125402), IHC staining was performed using standard procedures. Briefly, after antigen retrieval and blocking of endogenous peroxidase activity, slides were incubated with primary antibody. For all IHC stains, the primary antibody was detected using a polymeric HRP-linker antibody conjugate and visualized using DAB as chromogen. Finally, sections were counterstained in hematoxylin and cover-slipped before scanning.
Quantitative assessment of immunoreactivity is evaluated as follows. IHC-positive staining is quantified by image analysis using the Visiomorph software (Visiopharm, Denmark). Visiomorph protocols are designed to analyze the virtual slides in two steps: 1. Crude detection of tissue at low magnification (1× objective). The liver capsule is excluded. 2. Detection of IHC-positive staining (e.g. green; collagen 1 IHC), tissue (e.g. red) and fat (e.g. pink) at high magnification (10×objective). The quantitative estimate of IHC-positive staining is calculated as an area fraction (AF) according to the following formula:
Terminal liver α-SMA was quantified by morphometry. Relative terminal liver α-SMA (% fractional area) is expressed as mean of n=12-14+SEM.
Total terminal α-SMA values are in milligrams (% fractional area multiplied with liver weight) and expressed as mean of n=12-14+SEM.

[7] = day 83/84/85, CHS-131 High 30 mg/kg, empagliflozin 10 mg/kg, elafibranor 30 mg/kg PO, liraglutide 0.4 mg/kg SC, QD
[8] = CHS-131 High 30 mg/kg, empagliflozin 10 mg/kg, elafibranor 30 mg/kg PO, liraglutide 0.4 mg/kg SC, QD
[9] = at baseline, CHS-131 High dose (alone or combined)
[10] = week 12, CHS-131 High dose (alone or combined)
[11] = CHS-131 High dose (alone or combined)
[12] = DIO-NASH mice, 12 weeks of treatment, summary of data
[13] = DIO-NASH mice, compared to DIO mice administered vehicle only, significant, not in a dose response manner

SMILES | Absolute body weight at termination (DIO-NASH mice [1]; [7]) [grams] | Terminal relative body weight, percentage of starting body weight (DIO-NASH mice [1]; [8]) [%] | 4 h fasted blood glucose (DIO-NASH mice [2]; [9]) [mmol/L] | 4 h fasted blood glucose (DIO-NASH mice [2]; [10]) [mmol/L] | Delta 4 h fasted blood glucose week 12 vs baseline (DIO-NASH mice [2]; [11]) [mmol/L] | Area under the curve 0-180 min IPITT (blood glucose) (DIO-NASH mice [3]; [11]) | Plasma total cholesterol (TC) at termination (DIO-NASH mice [4]; [11]) [mmol/L] | Plasma urea at termination (DIO-NASH mice [5]; [11]) [mmol/L] | Relative terminal liver α-SMA by morphometry (DIO-NASH mice [6]; [11]) [% fractional area] | Total terminal α-SMA (% fractional area multiplied with liver weight) (DIO-NASH mice [6]; [11]) [milligrams] | also measured
O=S(=O)(Nc1cc(Cl)c(Oc2cnc3ccccc3c2)c(Cl)c1)c1ccc(Cl)cc1Cl [CHS-131] | 38.2 | 102 | 7.68 | 7.01 | -0.675 | 767 | 6.38 | 7.12 | 3.07 | 102 | Body weight, effect in words (DIO-NASH mice [1]; compared to DIO mice administered vehicle only): tends to reduce; Absolute body weight at termination (DIO-NASH mice [1]; day 83/84/85, CHS-131 Low 10 mg/kg PO QD): 38.2 grams; Terminal relative body weight, percentage of starting body weight (DIO-NASH mice [1]; CHS-131 Low 10 mg/kg PO QD): 103%; 4 h fasted blood glucose (DIO-NASH mice [2]; at baseline, CHS-131 Low dose): 8.09 mmol/L; 4 h fasted blood glucose (DIO-NASH mice [2]; week 12, CHS-131 Low dose): 7.31 mmol/L; Delta 4 h fasted blood glucose week 12 vs baseline (DIO-NASH mice [2]; CHS-131 Low dose): -0.787 mmol/L; Insulin sensitization, effect in words (DIO-NASH mice [3]; [12]): significant improvement; Decrease of insulin resistance (DIO-NASH mice [3]; [13]): 15%; Area under the curve 0-180 min IPITT (blood glucose) (DIO-NASH mice [3]; CHS-131 Low dose): 758; Plasma TC, effect in words (DIO-NASH mice [4]; [12]): reduced; Decrease of plasma cholesterol (DIO-NASH mice [4]; [13]): ~12%; Plasma total cholesterol (TC) at termination (DIO-NASH mice [4]; CHS-131 Low dose): 6.45 mmol/L; Hemodilution, assessed by urea, effect in words (DIO-NASH mice [5]; DIO-NASH mice, compared to DIO mice administered vehicle only): No difference; Plasma urea at termination (DIO-NASH mice [5]; CHS-131 Low dose): 7.4 mmol/L; Marker of fibrosis α-SMA, effect in words (DIO-NASH mice [6]; [12]): positive trends for improvement; Decrease of terminal α-SMA (marker of fibrosis) (DIO-NASH mice [6]; DIO-NASH mice, compared to vehicle alone, trend): 15%; Relative terminal liver α-SMA by morphometry (DIO-NASH mice [6]; CHS-131 Low dose): 3.49 % fractional area; Total terminal α-SMA (% fractional area multiplied with liver weight) (DIO-NASH mice [6]; CHS-131 Low dose): 110 milligrams
CSc1ccc(C(=O)/C=C/c2cc(C)c(OC(C)(C)C(=O)O)c(C)c2)cc1 [Elafibranor, reference compound] | 31.8 | 86.5 | 7.68 | 6.41 | -1.27 | 757 | 5.75 | 8.01 | 2.56 | 114 | –
OC[C@H]1O[C@@H](c2ccc(Cl)c(Cc3ccc(O[C@H]4CCOC4)cc3)c2)[C@H](O)[C@@H](O)[C@@H]1O [Empagliflozin, reference compound] | 39.6 | 107 | 7.71 | 6.69 | -1.03 | 723 | 7.62 | 6.77 | 3.8 | 130 | Markers of fibrosis, effect in words (DIO-NASH mice [6]; DIO-NASH mice, 12 weeks of treatment, summary of data, markers not given): significant reduction
